Measured values as given in PMC12250893, “Systematic Characterization of In Vitro and In Vivo Metabolic Pathways and Identification of Novel Biomarkers of 26 Synthetic Cannabinoids” (Molecules, 2025).

What was measured:
[1] = Human liver microsomal incubation (in vitro metabolic model); conditions: HLM, 37 °C 1 h, then UDPGA 30 min; peak area of parent in experimental group vs degradation control group
Protocol: Each of the 26 SCs was configured to 1 mg/mL with acetonitrile. The HLMs, NADPH regeneration solution A, regeneration solution B, and UDPGA solution were thawed at 4 °C. An icebox was prepared, and all additional steps were performed on ice. For this, 10 µL of NADPH regeneration solution A, 2 µL of regeneration solution B, 2 µL of SCs standard, and 10 µL of mixed human liver microsomes were added to 176 µL of 0.1 mol/L phosphate buffer. The mixture was mixed thoroughly and incubated at 37 °C for 1 h. Subsequently, 20 µL of UDPGA solution was added and mixed well, followed by an additional incubation for 30 min. The reaction was stopped by adding 200 µL of ice-cold acetonitrile. Additionally, the negative control group and the degradation control group were set up following the same procedure. […] The unadded components were supplemented with an equal amount of phosphate buffer. All samples were centrifuged at a high speed of 13,500 r for 10 min after reaction termination. The supernatant was collected and subsequently passed through a membrane filter (0.45 μm) prior to sampling.
The samples were separated and analyzed using a UHPLC-Q-Exactive Orbitrap MS system (Thermo Fisher Scientific, Waltham, MA, USA), which comprised a Thermo-Scientific™ Q-Exactive™(Thermo Fisher Scientific, Waltham, MA, USA) quadrupole electrostatic field orbitrap mass spectrometer coupled to a Vanquish ultrahigh-performance liquid chromatography (UHPLC) system (Thermo Fisher Scientific, Waltham, MA, USA) with a heated electrospray ionization HESI source in the positive ionization mode. The samples were separated on an ACQUITY UPLC BEH C18 Column (100 × 2.1 mm, 1.7 μm) with the column temperature maintained at 30 °C. The chromatographic separation was achieved using a gradient elution program with mobile phase A consisting of 0.1% formic acid in water and mobile phase B containing 0.1% formic acid in acetonitrile. The gradient profile was programmed as follows: Initial conditions were maintained at 5% B from 0 to 1 min, followed by a linear increase to 95% B from 1 to 11 min; the 95% B composition was held from 11 to 15.5 min, then decreased back to 5% B from 15.5 to 16 min, and finally maintained at 5% B from 16 to 18 min. The flow rate was set at 0.3 mL/min, and the injection volume was 10 μL for all analyses.
The following HESI source conditions were adopted: Acquisition mode was set to positive ion mode; the capillary temperature was maintained at 325 °C, the auxiliary gas heater temperature was set to 350 °C, and the spray voltage was applied at 3.7 kV. The mass spectrometry analysis was carried out in full-scan (FS) mode to trigger data-dependent acquisition in tandem mass spectrometry (FS-ddMS^2) mode. The FS data acquisition was performed using the following parameters: a resolution of 60,000, an automatic gain control (AGC) target of 1 × 10^6, a scan range of m/z 66.7–1000, and a maximum injection time (IT) of 250 ms. The ddMS^2 data acquisition was performed using the following parameters: a resolution of 30,000; an automatic gain control (AGC) target of 1 × 10^5; normalized collision energies (NCEs) of 20, 40, and 70 eV; and a maximum injection time (IT) of 50 ms.
Data acquisition was executed utilizing Xcalibur 4.3 software (Thermo Fisher Scientific, Waltham, MA, USA). The subsequent analysis of the acquired data was conducted using Thermo Fisher Scientific […] 3.2 software (Thermo Fisher Scientific, Waltham, MA, USA). The workflow’s nodes employed specific parameters: a mass tolerance of 5 ppm, a signal-to-noise threshold of 3, a minimum peak intensity of 1 × 10^5, a maximum peak width of 0.8 min, and a minimum of 3 scans per peak.

[2] = Metabolite identification, HLM incubation and rat model combined (UHPLC-Q-Exactive Orbitrap MS); set-up: species or system human; rat; conditions: for Characteristic Metabolite: characteristic / defining metabolites by the screening criteria; for Number of Metabolites / Number of Phase I Metabolites / Number of Phase II Metabolites: in vitro (HLM) and in vivo (rat) models together
Protocol: (§1) Sprague-Dawley male rats (200 ± 20 g) were obtained from SPF (Beijing) Biotechnology Co., Ltd. (Beijing, China). The animals were housed under controlled environmental conditions: Temperature was maintained at 20–25 °C, humidity at 50 ± 10%, and a 12/12 h light/dark cycle was applied. They had ad libitum access to standard laboratory chow and filtered water. A two-week acclimatization period was provided before the experiments began. The 26 SC standards were prepared in normal saline at concentrations of 0.5 mg/mL, 0.1 mg/mL, and 0.05 mg/mL. Each rat was weighed before administration, and the injection dose was adjusted based on body weight. The dosing volume for each rat was maintained at approximately 200 µL.
(§2) 162 Sprague-Dawley (SD) rats were randomly divided into 27 groups, with six rats in each group. The control group received an injection of normal saline, while the remaining groups were injected with 26 different types of SCs. The dosage administered was determined based on pre-experimental results, specifically selecting the dose that produced the highest level of metabolites in the blood samples collected 1 h after tail vein injection at concentrations of 0.5 mg/kg, 0.1 mg/kg, and 0.05 mg/kg, as shown in Table 6. Subsequently, tail vein administration was conducted at the specified dosage. The orbital venous blood was taken from the outer canthus of the rat with capillaries at 15 min and 1 h. Feces were collected after the blood. The rats were then sacrificed, and their brains and livers were dissected. Samples were immediately frozen in liquid nitrogen and stored at −80 °C until analysis.
For blood samples, 0.5 mL of each sample was mixed with 1.0 mL of acetonitrile. For brain samples, 0.2 g of tissue was combined with 0.5 mL of acetonitrile. For liver samples, 0.5 g of tissue was mixed with 0.5 mL of acetonitrile. For feces samples, 0.2 g of sample was combined with 1 mL of acetonitrile-water (3:1) for grinding and homogenization. Each mixture was sonicated for 40 min, allowed to precipitate at 4 °C for 30 min, and then centrifuged at 13,500 rpm for 10 min. The supernatant was filtered using a syringe filter (0.45 μm) for further testing.

[3] = Clinical symptoms of rats in metabolic model; type: in vivo, rat; conditions: SD rats, dose 0.05-0.5 mg/kg per Table 6
Protocol: as §1, §2

## CCCCCn1cc(C(=O)NC(C(N)=O)C(C)(C)C)c2cccnc21 (centres unmarked) [ADB-P7AICA]
[1]
  Conversion Rate: 42.9%
[2]
  Characteristic Metabolite: Hydroxylation, deamination, and dehydrogenation metabolites
  Number of Metabolites: 40
  Number of Phase I Metabolites: 28
  Number of Phase II Metabolites: 12

## C=CCCCn1nc(C(=O)NC(C(N)=O)C(C)(C)C)c2ccccc21 (centres unmarked) [ADB-4en-PINACA]
[1]
  Conversion Rate: 18.2%
[2]
  Characteristic Metabolite: Deamination, hydration, dihydrodiol, and deamination metabolites
  Number of Metabolites: 30
  Number of Phase I Metabolites: 25
  Number of Phase II Metabolites: 5

## CCCCCn1cc(C(=O)c2ccc3ccccc3c2)cc1-c1ccccc1F [JWH-307]
[1]
  Conversion Rate: 55.2%
[2]
  Characteristic Metabolite: Hydroxylation, ketogenic, and de-N-alkyl side chain metabolites
  Number of Metabolites: 20
  Number of Phase I Metabolites: 12
  Number of Phase II Metabolites: 8

## O=C(c1cccc2ccccc12)c1nc2ccccc2n1CCCCCF [BIM-2201]
[1]
  Conversion Rate: 90.2%
[2]
  Characteristic Metabolite: Oxidative defluorination, dihydrodiol, and hydroxylated metabolite
  Number of Metabolites: 29
  Number of Phase I Metabolites: 17
  Number of Phase II Metabolites: 12

## C=CCCn1nc(C(=O)NC(C(N)=O)C(C)(C)C)c2ccccc21 (centres unmarked) [ADB-3en-BUTINACA]
[1]
  Conversion Rate: 98.7%
[2]
  Characteristic Metabolite: Dihydrodiol, deamination, deamination, and hydroxylation metabolites
  Number of Metabolites: 22
  Number of Phase I Metabolites: 18
  Number of Phase II Metabolites: 4

## C=CCCCn1nc(C(=O)NC(C(=O)OC)C(C)(C)C)c2ccccc21 (centres unmarked) [MDMB-4en-PINACA]
[1]
  Conversion Rate: 69.7%
[2]
  Characteristic Metabolite: Dihydrodiol, ester hydrolysis, ketogenic, and amide hydrolysis metabolites
  Number of Metabolites: 14
  Number of Phase I Metabolites: 12
  Number of Phase II Metabolites: 2

## C=CCCCn1nc(C(=O)NC(C(N)=O)C(C)C)c2ccccc21 (centres unmarked) [AB-4en-PINACA]
[1]
  Conversion Rate: 98.7%
[2]
  Characteristic Metabolite: Deamination, hydration, and deamidation metabolites
  Number of Metabolites: 18
  Number of Phase I Metabolites: 17
  Number of Phase II Metabolites: 1

## CCCCCn1cc(C(=O)C2C(C)(C)C2(C)C)c2ccccc21 [UR-144]
[1]
  Conversion Rate: 30.5%
[2]
  Characteristic Metabolite: Hydroxylation, de-N-alkyl side chains, and ketogenic metabolites
  Number of Metabolites: 24
  Number of Phase I Metabolites: 15
  Number of Phase II Metabolites: 9

## CC(C)(C)C(NC(=O)c1nn(CC2CCCCC2)c2ccccc12)C(N)=O (centres unmarked) [ADB-CHMINACA]
[1]
  Conversion Rate: 62.8%
[2]
  Characteristic Metabolite: Deamination, deamination of N-alkyl side chains, and hydrolytic metabolites
  Number of Metabolites: 25
  Number of Phase I Metabolites: 18
  Number of Phase II Metabolites: 7
[3]
  Animal manifestations after tail vein drug injection: irritable, with unstable gait and tachypnea

## CCCCCCn1nc(C(=O)NC(C(N)=O)C(C)(C)C)c2ccccc21 (centres unmarked) [ADB-HEXINACA]
[1]
  Conversion Rate: 24.8%
[2]
  Characteristic Metabolite: Deamination, deamidation, amide hydrolysis, and hydroxylation metabolites
  Number of Metabolites: 31
  Number of Phase I Metabolites: 24
  Number of Phase II Metabolites: 7

## COC(=O)C(NC(=O)c1nn(CCCCCF)c2ccccc12)C(C)(C)C (centres unmarked) [5F-ADB]
[1]
  Conversion Rate: 88.1%
[2]
  Characteristic Metabolite: Ester hydrolysis, dehydrogenation, and acidification metabolites
  Number of Metabolites: 25
  Number of Phase I Metabolites: 17
  Number of Phase II Metabolites: 8
[3]
  Animal manifestations after tail vein drug injection: hematuria

## CCCCCn1cc(C(=O)c2ccc3ccccc3c2)cc1-c1ccccc1C [JWH-370]
[1]
  Conversion Rate: 42.0%
[2]
  Characteristic Metabolite: Dihydrodiol, hydroxylated, and de-N-alkyl side chain metabolites
  Number of Metabolites: 14
  Number of Phase I Metabolites: 9
  Number of Phase II Metabolites: 5
[3]
  Animal manifestations after tail vein drug injection: syncope

## CCOC(=O)C(NC(=O)c1nn(CCCCCF)c2ccccc12)C(C)C (centres unmarked) [5F-EMB-PICA]
[1]
  Conversion Rate: 80.6%
[2]
  Characteristic Metabolite: Ester hydrolysis, amide hydrolysis, and oxidative defluorination metabolite
  Number of Metabolites: 19
  Number of Phase I Metabolites: 9
  Number of Phase II Metabolites: 10

## CC(C)C(NC(=O)c1nn(Cc2ccc(F)cc2)c2ccccc12)C(N)=O (centres unmarked) [AB-FUBINACA]
[1]
  Conversion Rate: 74.6%
[2]
  Characteristic Metabolite: Hydrolysis, hydroxylation, and deamination metabolites
  Number of Metabolites: 19
  Number of Phase I Metabolites: 15
  Number of Phase II Metabolites: 4

## CC1(C)C(C(=O)c2cn(Cc3ccc(F)cc3)c3ccccc23)C1(C)C [FUB-144]
[1]
  Conversion Rate: 30.4%
[2]
  Characteristic Metabolite: Ketogenic and hydroxylated, hydroxylated, and dehydrogenated metabolites
  Number of Metabolites: 18
  Number of Phase I Metabolites: 11
  Number of Phase II Metabolites: 7
[3]
  Animal manifestations after tail vein drug injection: hematuria

## CN1CCCCC1Cn1cc(C(=O)C2C(C)(C)C2(C)C)c2ccccc21 (centres unmarked) [AB-005]
[1]
  Conversion Rate: 60.9%
[2]
  Characteristic Metabolite: Hydroxylation, de-N-alkyl side chain, dehydrogenation, and dihydroxylation metabolites
  Number of Metabolites: 17
  Number of Phase I Metabolites: 12
  Number of Phase II Metabolites: 5

## CCCCCn1c(C(=O)c2cccc3ccccc23)nc2ccccc21 [BIM-018]
[1]
  Conversion Rate: 93.7%
[2]
  Characteristic Metabolite: Ketogenic, hydroxylated, and dehydrogenated metabolites
  Number of Metabolites: 27
  Number of Phase I Metabolites: 13
  Number of Phase II Metabolites: 14
